Data taken from patent US5618793A, “Nikkomycin analogs” (Schering Corporation, priority 1995, dated 1997).
Values after ≈ are worked out from the molar mass of the structure shown. Where two headings read alike, the source gives them in different places.

Experiments:
[1] = test system: Sensitive Strains: Candida albicans C141, Candida sp. C2, Candida sp. C109, Candida parapsilosis C67, Candida tropicalis C112, Torulopsis glabrata C95, Candida …; type: cell-based, Candida spp., Sacchararomyces; details: geometric mean of MICs against sensitive strains, YNB pH 5.4, 37° C., 48 hours, lowest concentration preventing visible growth
Protocol: (§1) In vitro anti-fungal activity was determined in microtiter minimum inhibitory concentration (MIC) tests using Yeast Nitrogen Broth (YNB without amino acids, Difco., Detroit, Mich.) at pH 5.4. Yeasts were grown overnight in Sabouraud Dextrose Broth at 28° C. with shaking, and concentrations adjusted in sterile saline using a spectrophoptometer at 540 mμ. Compounds were dissolved in various vehicles and diluted in media to twice the final concentrations. The Cetus Pro/Pette system was used to serially dilute 50 μl in round bottom 96 well plates (Falcon, Lincoln Park, N.J.). The turbidometrically adjusted yeast suspensions were diluted 1:3,000 in YNB. These dilutions when added to the wells, produced a final inoculum of 3×10^3 /ml. Plates were incubated at 37° C. for 48 hours. MICs were defined as the lowest concentrations of compound that prevented visible growth. MICs were taken against the following organisms and expressed in the table above as the geometric mean.
(§2) MIC-R and MIC-S mean respectively MICs taken against resistant and sensitive strains.
Candida parapsilosis C67
Candida tropicalis C112
Torulopsis glabrata C95
Candida pseudotropicalis C967
Candida guillermondii C137
Sacchararomyces mutant C147

[2] = test system: Resistant Strains: Candida albicans C79, C6, C8, C31, C54, C70, C104, C138, C140; Candida stellatoidea C45; assay: microtiter minimum inhibitory concentration (MIC) test, resistant strains (MIC-R); type: cell-based; details: geometric mean of MICs against resistant strains, YNB pH 5.4, 37° C., 48 hours, lowest concentration preventing visible growth
Protocol: as §1, §2
Candida stellatoidea C45

SMILES | MIC-S [1] [µg/mL] | MIC-R [2] [µg/mL] | also measured
CCCCCCCCCCCCN(O)C(=O)C(NC(=O)C(N)Cc1c[nH]c2ccc(O)cc12)C1OC(n2ccc(=O)[nH]c2=O)C(O)C1O (centres unmarked) [Compound 18] | 239 (≈ 355 µM) | 39 (≈ 58 µM) | –
CCCCCCCCCCCCNC(=O)C(NC(=O)C(N)Cc1cn(C)c2ccccc12)C1OC(n2ccc(=O)[nH]c2=O)C(O)C1O (centres unmarked) [Compound 25] | > 256 | > 256 | –
CCCCCCCCCCCCCCNC(=O)C(NC(=O)C(N)Cc1c[nH]c2ccc(O)cc12)C1OC(n2ccc(=O)[nH]c2=O)C(O)C1O (centres unmarked) [Compound 9] | 147 (≈ 215 µM) | > 256 | –
CCCCCCCCCCCCNC(=O)C(NC(=O)C(N)c1ccccc1)C1OC(n2ccc(=O)[nH]c2=O)C(O)C1O (centres unmarked) [Compound 24] | 194 (≈ 330 µM) | 18 (≈ 30.6 µM) | –
CCCCCCCCCCCCCCCCCCNC(=O)C(NC(=O)C(N)Cc1c[nH]c2ccc(O)cc12)C1OC(n2ccc(=O)[nH]c2=O)C(O)C1O (centres unmarked) [Compound 4] | > 2048 | > 2048 | –
CCCCCCCCCCCCNC(=O)C(NC(=O)C(N)Cc1c[nH]c2ccc(O)cc12)C1OC(n2ccc(=O)[nH]c2=O)C(O)C1O (centres unmarked) [Compound 3, 6'-Dodecylamido-5-N-(5-hydroxytryptophanyl)UPOC] | 478 (≈ 728 µM) | 23 (≈ 35 µM) | –
CCCCCCCCCCCCN(OCc1ccccc1)C(=O)C(NC(=O)C(N)Cc1c[nH]c2ccc(O)cc12)C1OC(n2ccc(=O)[nH]c2=O)C(O)C1O (centres unmarked) [Compound 14] | 119 (≈ 156 µM) | 28 (≈ 36.7 µM) | –
CCCCCCCCCCCCNC(=O)C(NC(=O)C(N)Cc1csc2ccc(O)cc12)C1OC(n2ccc(=O)[nH]c2=O)C(O)C1O (single isomer, unassigned) [Compound 21] | 158 (≈ 234 µM) | 208 (≈ 309 µM) | –
CCCCCCCCCCCCNC(=O)C(NC(=O)C(N)Cc1ccc(OC)cc1)C1OC(n2ccc(=O)[nH]c2=O)C(O)C1O (centres unmarked) [Compound 23] | 56 (≈ 88.6 µM) | 9.8 (≈ 15.5 µM) | –
CCCCCCCCCCCCNC(=O)C(NC(=O)[C@@H](N)C(C)Cc1ccc(OC)cc1)C1OC(n2ccc(=O)[nH]c2=O)C(O)C1O (some centres unmarked) [Compound 12, 6'-Dodecylamido-5-N-(2-S-amino-3-R,S-methyl-4-p-methoxyphenyl-butyryl) UPOC] | 208 (≈ 315 µM) | 28 (≈ 42.4 µM) | –
CCCCCCCCCCCCNC(=O)C(NC(=O)C(N)CCc1ccc2ccccc2n1)C1OC(n2ccc(=O)[nH]c2=O)C(O)C1O (centres unmarked) [Compound 17] | – | – | MIC-S ([1]; listed as drawing 73): 158 µg/mL (≈ 237 µM); MIC-R ([2]; listed as drawing 73): 21 µg/mL (≈ 31.5 µM)
CCCCCCCCCCNC(=O)C(NC(=O)C(N)Cc1c[nH]c2ccc(O)cc12)C1OC(n2ccc(=O)[nH]c2=O)C(O)C1O (centres unmarked) [Compound 13] | 388 (≈ 617 µM) | 181 (≈ 288 µM) | –
CCCCNC(=O)[C@@H](NC(=O)[C@@H](N)Cc1c[nH]c2ccc(O)cc12)[C@H]1O[C@@H](n2ccc(=O)[nH]c2=O)[C@H](O)[C@@H]1O [Compound 1] | > 4096 | > 4096 | –
CCCCCCCCCCCCNC(=O)C(NC(=O)C(N)CCc1ccc2ccccc2n1)C1OC(n2ccc(=O)[nH]c2=O)C(O)C1O (centres unmarked) [Compound 16] | – | – | MIC-S ([1]; listed as drawing 72): 239 µg/mL (≈ 358 µM); MIC-R ([2]; listed as drawing 72): 294 µg/mL (≈ 441 µM)
CCCCCCCCCCCCNC(=O)C(NC(=O)C(N)C(C)Cn1ccnc1)C1OC(n2ccc(=O)[nH]c2=O)C(O)C1O (mixture of isomers) [Compound 11] | 85 | 316 | –
CCCCCCCCCCCCNC(=O)C(NC(=O)C(N)C(C)Cc1ccc(O)cn1)C1OC(n2ccc(=O)[nH]c2=O)C(O)C1O (centres unmarked) [Compound 10] | 478 (≈ 739 µM) | 147 (≈ 227 µM) | –
CC(C)=CCCC(C)=CCCC(C)=CCNC(=O)C(NC(=O)C(N)Cc1c[nH]c2ccc(O)cc12)C1OC(n2ccc(=O)[nH]c2=O)C(O)C1O (centres unmarked) [Compound 15] | 362 (≈ 523 µM) | 143 (≈ 206 µM) | –
NC(Cc1c[nH]c2ccc(O)cc12)C(=O)NC(C(=O)NCc1ccccc1)C1OC(n2ccc(=O)[nH]c2=O)C(O)C1O (centres unmarked) [Compound 20] | > 256 | > 256 | –
CCCCCCCCCCCCNC(=O)C(NC(=O)C(N)Cc1csc2ccc(O)cc12)C1OC(n2ccc(=O)[nH]c2=O)C(O)C1O (single isomer, unassigned) [Compound 22] | 158 (≈ 234 µM) | – | MIC-R ([2]; listed as drawing 80): > 256 µg/mL
